Results taken from patent publication US10188627B2, “PPAR agonists, compounds, pharmaceutical compositions, and methods of use thereof” (Mitobridge, Inc., priority 2014, dated 2019).

Columns and labels:
[1] = Pharmacokinetic screening, iv; assay type: in vivo; details: CD-1 mice, 3 mg/kg iv
[2] = molecular target: Human PPARδ LBD (Homo sapiens (Human), UniProt Q03181); assay: PPAR delta transactivation (PPARδ Activity Screen, GAL4-PPARδ LBD luciferase reporter in CV-1 cells); assay type: cell-based
Protocol: Cell Culture and Transfection:
CV-1 cells were grown in DMEM+10% charcoal stripped FCS. Cells were seeded into 384-well plates the day before transfection to give a confluency of 50-80% at transfection. A total of […] containing 0.64 micrograms pCMX-PPARDelta LBD, 0.1 micrograms pCMXβGal, 0.08 micrograms pGLMH2004 reporter and 0.02 micrograms pCMX empty vector was transfected per well using FuGene transfection reagent according to the manufacturer's instructions (Roche). Cells were allowed to express protein for 48 h followed by addition of compound.
Human PPARδ was used to PCR amplify the PPARδ LBD. […] Ensuing fusions were verified by sequencing.
Compounds: All compounds were dissolved in DMSO and diluted 1:1000 upon addition to the cells. Compounds were tested in quadruple in concentrations ranging from 0.001 to 100 μM. Cells were treated with compound for 24 h followed by luciferase assay. Each compound was tested in at least two separate experiments.
Statistical Methods: The activity of a compound is calculated as fold induction compared to an untreated sample. For each compound the efficacy (maximal activity) is given as a relative activity compared to GW501516, a PPARδ agonist. […] EC50 values were calculated via non-linear regression using GraphPad PRISM (GraphPad Software, San Diego, Calif.).

[3] = test system: FGF1a promoter; assay: Luciferase reporter assay of FGF1a promoter co-transfected with PPARδ; assay type: cell-based; details: PPARδ with or without ligand
[4] = test system: C57BL6J mice, thermal injury to the TA; assay: Muscle regeneration after freeze burn (thermal) injury to the TA, oral GW501516; assay type: in vivo

Sequence of Human PPARδ LBD (Q03181 128-441 limits assumed): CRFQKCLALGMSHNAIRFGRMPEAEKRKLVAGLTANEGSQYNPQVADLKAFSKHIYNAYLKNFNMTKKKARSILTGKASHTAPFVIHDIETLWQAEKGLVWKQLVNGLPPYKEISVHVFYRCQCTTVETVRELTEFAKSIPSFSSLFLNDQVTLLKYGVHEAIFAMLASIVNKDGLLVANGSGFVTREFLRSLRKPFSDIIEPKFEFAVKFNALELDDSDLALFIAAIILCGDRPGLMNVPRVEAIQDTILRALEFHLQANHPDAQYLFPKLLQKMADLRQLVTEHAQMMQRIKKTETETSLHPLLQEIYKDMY

Structure (SMILES) | Mice_PK_IV_AUC (0-inf) [1] | Mice_PK_IV_Cl [1] | other results
Cc1cc2cc(C(=O)N(C)Cc3ccccc3OCCCCCC(=O)O)ccc2o1 [Comparator Cmpd. 3, reference compound] | [AUC (0-inf) = 1788.0 ng * hr/ml] | Mice_PK_IV_Cl = 27.95 ml/min/kg | –
C/C(=C\COc1ccc(C(F)(F)F)cc1CN(C)C(=O)c1ccc(-c2ccco2)cc1)CCC(=O)O [Compound 8aa, (E)-6-(2-((4-(furan-2-yl)-N-methylbenzamido)methyl)-4-(trifluoromethyl)phenoxy)-4-methylhex-4-enoic acid] | – | – | EC50 ([2]; CV-1 cells, 24 h): 683 nM
C/C(=C\COc1ccc(C2CC2)cc1CN(C)C(=O)c1ccc(-c2ccco2)cc1)CCC(=O)O [Compound 8bb, (E)-6-(4-cyclopropyl-2-((4-(furan-2-yl)-N-methylbenzamido)methyl)phenoxy)-4-methylhex-4-enoic acid] | – | – | inhibition at 10 µM ([2]; CV-1, @ 10 uM): 58%
C/C(=C\COc1ccccc1CN(C)C(=O)c1ccc(-c2ccco2)c(F)c1)CCC(=O)O [Compound 8c, (E)-6-(2-((3-fluoro-4-(furan-2-yl)-N-methylbenzamido)methyl)phenoxy)-4-methylhex-4-enoic acid] | 1459.00 ng·h/mL | 34.30 mL/min/kg | –
C/C(=C\COc1ccccc1CN(C)C(=O)c1ccc(-c2ccco2)c(Cl)c1)CCC(=O)O [Compound 8d, (E)-6-(2-((3-chloro-4-(furan-2-yl)-N-methylbenzamido)methyl)phenoxy)-4-methylhex-4-enoic acid] | 1443.00 ng·h/mL | 34.65 mL/min/kg | –
C/C(=C\COc1ccccc1CN(C)C(=O)c1ccc(-c2ccc(C)o2)cc1)CCC(=O)O [Compound 8e, (E)-4-methyl-6-(2-((N-methyl-4-(5-methylfuran-2-yl)benzamido)methyl)phenoxy)hex-4-enoic acid] | 2166.00 ng·h/mL | 23.10 mL/min/kg | –
C/C(=C\COc1ccccc1CN(C)C(=O)c1ccc2oc(C)cc2c1)CCC(=O)O [Compound 8f, (E)-6-(2-((N,2-dimethylbenzofuran-5-carboxamido)methyl)phenoxy)-4-methylhex-4-enoic acid] | – | 40.02 mL/min/kg | –
C/C(=C\COc1ccc(C)cc1CN(C)C(=O)c1ccc(-c2ccco2)cc1)CCC(=O)O [Compound 8n, (E)-6-(2-((4-(furan-2-yl)-N-methylbenzamido)methyl)-4-methylphenoxy)-4-methylhex-4-enoic acid] | – | 5.10 mL/min/kg | –
CN(Cc1ccccc1OCc1cccc(CCC(=O)O)c1)C(=O)c1ccc(-c2ccco2)cc1 [Compound 8p, 3-(3-((2-((4-(furan-2-yl)-N-methylbenzamido)methyl)phenoxy)methyl)phenyl)propanoic acid] | 288.90 ng·h/mL | 173.05 mL/min/kg | –
Cc1cc(SCc2sc(-c3ccc(C(F)(F)F)cc3)nc2C)ccc1OCC(=O)O [GW501516] | – | – | induction of FGF1a (luciferase reporter) [3]: induction of FGF1a; Evans Blue dye uptake, proportion of muscle CSA stained ([4]; 5 mg/kg orally, 4 days prior to and 5 days after injury, 5 days after the injury): 4.9%; expression of inflammatory marker genes by QPCR ([4]; 3 days after the injury): significantly reduced; reduction in the proportion of stained area ([4]; 5 days after the injury, versus vehicle): 34.7%; PPARδ target genes (PDK4, CPT1b, and catalase) in TA by QPCR ([4]; 9 day treatment): Up-regulation; myoblast proliferation (BrdU positive nuclei) ([4]; BrdU injection at 48 hours after the injury): promoted myoblast proliferation; number of quiescent satellite cells ([4]; after 9 days or 4 weeks of ligand treatment): an increase in the number of quiescent satellite cells was not observed

Second part, led by results:

Mice_PK_IV_AUC (0-inf) [1] | Mice_PK_IV_Cl [1] | Structure (SMILES) | other results
30142.00 ng·h/mL | 1.70 mL/min/kg | CN(Cc1ccccc1OCCC[C@H]1CC1C(=O)O)C(=O)c1ccc(-c2ccco2)cc1 (single isomer, unassigned) [Compound 8u, (1R*,2S*)-2-(3-(2-((4-(furan-2-yl)-N-methylbenzamido)methyl)phenoxy)propyl) cyclopropane-1-carboxylic acid] | –
– | 1.70 mL/min/kg | CN(Cc1ccccc1OCCC[C@H]1C[C@H]1C(=O)O)C(=O)c1ccc(-c2ccco2)cc1 (single isomer, unassigned) [Compound 8w] | –
– | 1.90 mL/min/kg | CN(Cc1ccccc1OCCC[C@@H]1C[C@@H]1C(=O)O)C(=O)c1ccc(-c2ccco2)cc1 (single isomer, unassigned) [Compound 8x] | –
748.00 ng·h/mL | 66.87 mL/min/kg | CN(Cc1ccccc1OCCC/C=C/C(=O)O)C(=O)c1ccc(-c2ccco2)cc1 [Compound 8cc, (E)-6-(2-((4-(furan-2-yl)-N-methylbenzamido)methyl)phenoxy)hex-2-enoic acid] | –
2195.00 ng·h/mL | 23.00 mL/min/kg | C/C(=C\COc1ccc(F)cc1CN(C)C(=O)c1ccc(-c2ccco2)cc1)CCC(=O)O [Compound 8g, (E)-6-(4-fluoro-2-((4-(furan-2-yl)-N-methylbenzamido)methyl)phenoxy)-4-methylhex-4-enoic acid] | –
11843.00 ng·h/mL | 4.20 mL/min/kg | CC(CCOc1ccccc1CN(C)C(=O)c1ccc(-c2ccco2)cc1)CCC(=O)O (centres unmarked) [Compound 8h, 6-(2-((4-(furan-2-yl)-N-methylbenzamido)methyl)phenoxy)-4-methylhexanoic acid] | –
4691.00 ng·h/mL | 10.65 mL/min/kg | C/C(=C\C(=O)O)CCCOc1ccccc1CN(C)C(=O)c1ccc(-c2ccco2)cc1 [Compound 8i, (E)-6-(2-((4-(furan-2-yl)-N-methylbenzamido)methyl)phenoxy)-3-methylhex-2-enoic acid] | –
12804.00 ng·h/mL | 3.92 mL/min/kg | C/C(=C\CCCOc1ccccc1CN(C)C(=O)c1ccc(-c2ccco2)cc1)C(=O)O [Compound 8k, (E)-6-(2-((4-(furan-2-yl)-N-methylbenzamido)methyl)phenoxy)-2-methylhex-2-enoic acid] | –
5161.00 ng·h/mL | 9.68 mL/min/kg | CN(Cc1ccccc1/C=C/CCCCC(=O)O)C(=O)c1ccc(-c2ccco2)cc1 [Compound 8l, (E)-7-(2-((4-(furan-2-yl)-N-methylbenzamido)methyl)phenyl)hept-6-enoic acid] | –
11397.00 ng·h/mL | 2.78 mL/min/kg | CC(CCCCOc1ccccc1CN(C)C(=O)c1ccc(-c2ccco2)cc1)C(=O)O (centres unmarked) [Compound 8o, 6-(2-((4-(furan-2-yl)-N-methylbenzamido)methyl)phenoxy)-2-methylhexanoic acid] | –
622.50 ng·h/mL | 80.32 mL/min/kg | CN(Cc1ccccc1OCc1cccc(CC(=O)O)c1)C(=O)c1ccc(-c2ccco2)cc1 [Compound 8q, 2-(3-((2-((4-(furan-2-yl)-N-methylbenzamido)methyl)phenoxy)methyl)phenyl)acetic acid] | –
48454.90 ng·h/mL | 1.03 mL/min/kg | CN(Cc1ccccc1OCCCCC(C)(C)C(=O)O)C(=O)c1ccc(-c2ccco2)cc1 [Compound 8s, 6-(2-((4-(furan-2-yl)-N-methylbenzamido)methyl)phenoxy)-2,2-dimethylhexanoic acid] | –
– | 3.08 mL/min/kg | CN(Cc1ccccc1OCCCC1CC1C(=O)O)C(=O)c1ccc(-c2ccco2)cc1 (centres unmarked) [Compound 8t, 2-(3-(2-((4-(furan-2-yl)-N-methylbenzamido)methyl)phenoxy)propyl) cyclopropane-1-carboxylic acid] | –
